In patent US20030158094A1, “Combination product of an aryl-substituted propanolamine derivative with at least one other active ingredient and the use of the product” (priority 2001, published 2003):

Assays:
Type in all cases: in vivo
[1] = test system: Male Syrian hamsters (Mesocricetus auratus); assay: Plasma lipids in cholesterol-fed hamsters, combination of compound C1 with Caromax; details: 30 mg/kg/d C1, feed +0.1% CH
Description: (§1) Hamsters were used for the biological testing of the combination product of the invention. Male Syrian hamsters (Mesocricetus auratus) from 8 to 10 weeks of age were used for the experiment. The animals received a standard feed (Teklad 8604M) supplemented with 0.1% cholesterol. An additional normal control group received only standard feed. The test substances were administered orally by gavage once a day on 12 consecutive days, and the control group was treated with the vehicle. Feces were collected on days 5 and 6 of the experiment for bile acid analysis. Retroorbital blood was taken from the animals on day 10 of the experiment, and the lipid levels in the plasma were determined. Radioactive tracers were administered orally to the animals on day 11 of the experiment to determine the cholesterol absorption in analogy to the method described by Zilversmith et al. On day 13 of the experiment, the animals were sacrificed, and the animals' livers were removed for cholesterol analysis and preparation of microsomes. The 7α-hydroxylase activity was determined in the liver microsomes ex vivo by a modified method of Hylemon et al. [table] Male Syrian hamsters (Mesocricetus auratus) supplied by Harlan 80-100 g at the start of adaptation Safety parameters (CH; TG; ALAT/ASAT; AP; HDL/LDL) Preliminary value and 2 days before end of the experiment (isoflurane anesthesia) by retroorbital blood sampling

[2] = test system: Male Syrian hamsters (Mesocricetus auratus); assay: Liver cholesterol (HPLC) in cholesterol-fed hamsters, C1 with Caromax; details: 30 mg/kg/d C1, feed +0.1% CH
Description: as §1, with “Liver cholesterol (HPLC)=1×500 mg in EtOH/KOH (sample is also used for CH synthesis)” for “Male Syrian hamsters (Mesocricetus auratus) supplied by Harlan 80-100 g at the start of adaptation Safety parameters (CH; TG; ALAT/ASAT; AP; HDL/LDL) Preliminary value and 2 days before end of the experiment (isoflurane anesthesia) by retroorbital blood sampling”

[3] = test system: Male Syrian hamsters (Mesocricetus auratus); assay: Liver cholesterol synthesis (14C-octanoate i.v.) in cholesterol-fed hamsters, C1 with Caromax; details: 30 mg/kg/d C1, feed +0.1% CH
Description: Hamsters were used for the biological testing of the combination product of the invention. Male Syrian hamsters (Mesocricetus auratus) from 8 to 10 weeks of age were used for the experiment. The animals received a standard feed (Teklad 8604M) supplemented with 0.1% cholesterol. An additional normal control group received only standard feed. The test substances were administered orally by gavage once a day on 12 consecutive days, and the control group was treated with the vehicle. [table] Cholesterol Synthesis i.v. administration of ^14C-octanoate 10 μCi/100 g of animal 1 hour before the end of the experiment (isoflurane anesthesia) Removal of 2×500 mg of liver in EtOH/KOH

[4] = test system: Male Syrian hamsters (Mesocricetus auratus); assay: Plasma lipids in cholesterol-fed hamsters, ezetimibe (K00 04513) plus C1; details: feed +0.1% CH; for HDL % / Plasma parameter Cholesterol % / Plasma parameter LDL % / Plasma parameter Triglycerides %: cholesterol ctr. = 100
Description: as §1, with “[table]” for “[table] Male Syrian hamsters (Mesocricetus auratus) supplied by Harlan 80-100 g at the start of adaptation Safety parameters (CH; TG; ALAT/ASAT; AP; HDL/LDL) Preliminary value and 2 days before end of the experiment (isoflurane anesthesia) by retroorbital blood sampling”

[5] = test system: Male Syrian hamsters (Mesocricetus auratus); assay: Liver cholesterol (HPLC) in cholesterol-fed hamsters, ezetimibe (K00 04513) plus C1; details: feed +0.1% CH; for Liver Cholesterol %: cholesterol ctr. = 100
Description: as §1, with “[table]” for “[table] Male Syrian hamsters (Mesocricetus auratus) supplied by Harlan 80-100 g at the start of adaptation Safety parameters (CH; TG; ALAT/ASAT; AP; HDL/LDL) Preliminary value and 2 days before end of the experiment (isoflurane anesthesia) by retroorbital blood sampling”

[6] = test system: Male Syrian hamsters (Mesocricetus auratus); assay: Cholesterol absorption (3H-sitosterol/14C-cholesterol, feces) in hamsters, ezetimibe (K00 04513) plus C1; details: feed +0.1% CH; for CH absorption % of ctr.: normal ctr. = 100.0
Description: as §1, with “[table]” for “[table] Male Syrian hamsters (Mesocricetus auratus) supplied by Harlan 80-100 g at the start of adaptation Safety parameters (CH; TG; ALAT/ASAT; AP; HDL/LDL) Preliminary value and 2 days before end of the experiment (isoflurane anesthesia) by retroorbital blood sampling”

[7] = group 3, 0.1 mg/kg/d K 00 04513
[8] = group 4, 0.3 mg/kg/d K 00 04513

O=C(CCCCCCCCCCNC(=O)[C@H](O)[C@@H](O)[C@H](O)[C@H](O)CO)Nc1ccccc1[C@@H](Nc1ccccn1)[C@H](c1ccccn1)[C@H](O)c1ccccc1 [C1]
Cholesterol [1]: 3.58 mmol/L | HDL-cholesterol [1]: 2.42 mmol/L | LDL-cholesterol [1]: 0.88 mmol/L | Triglycerides [1]: 1.49 mmol/L | Cholesterol % ([1]; hyperlip. ctr. = 100): 89% | HDL-cholesterol % ([1]; hyperlip. ctr. = 100): 96% | LDL-cholesterol % ([1]; hyperlip. ctr. = 100): 75% | Triglycerides % ([1]; hyperlip. ctr. = 100): 102% | Liver Cholesterol [2]: 14.72 mg/g | Liver Cholesterol % ([2]; hyperlip. ctr. = 100): 54% | Liver Sterol biosynthesis [3]: 73 dpm/g/h | Liver Sterol biosynthesis % ([3]; normal ctr. I = 100): 18% | HDL ([4]; group 6, 3 mg/kg/d C1): 2.20 mmol/L | Plasma parameter Cholesterol ([4]; group 6, 3 mg/kg/d C1): 3.92 mmol/L | Plasma parameter LDL ([4]; group 6, 3 mg/kg/d C1): 0.98 mmol/L | Plasma parameter Triglycerides ([4]; group 6, 3 mg/kg/d C1): 1.84 mmol/L | HDL % ([4]; group 6, 3 mg/kg/d C1): 102% | Plasma parameter Cholesterol % ([4]; group 6, 3 mg/kg/d C1): 96% | Plasma parameter LDL % ([4]; group 6, 3 mg/kg/d C1): 87% | Plasma parameter Triglycerides % ([4]; group 6, 3 mg/kg/d C1): 90% | HDL ([4]; group 7, 10 mg/kg/d C1): 2.00 mmol/L | Plasma parameter Cholesterol ([4]; group 7, 10 mg/kg/d C1): 3.70 mmol/L | Plasma parameter LDL ([4]; group 7, 10 mg/kg/d C1): 0.78 mmol/L | Plasma parameter Triglycerides ([4]; group 7, 10 mg/kg/d C1): 2.35 mmol/L | HDL % ([4]; group 7, 10 mg/kg/d C1): 93% | Plasma parameter Cholesterol % ([4]; group 7, 10 mg/kg/d C1): 90% | Plasma parameter LDL % ([4]; group 7, 10 mg/kg/d C1): 69% | Plasma parameter Triglycerides % ([4]; group 7, 10 mg/kg/d C1): 116% | HDL ([4]; group 8, 30 mg/kg/d C1): 2.02 mmol/L | Plasma parameter Cholesterol ([4]; group 8, 30 mg/kg/d C1): 3.66 mmol/L | Plasma parameter LDL ([4]; group 8, 30 mg/kg/d C1): 0.80 mmol/L | Plasma parameter Triglycerides ([4]; group 8, 30 mg/kg/d C1): 2.02 mmol/L | HDL % ([4]; group 8, 30 mg/kg/d C1): 94% | Plasma parameter Cholesterol % ([4]; group 8, 30 mg/kg/d C1): 89% | Plasma parameter LDL % ([4]; group 8, 30 mg/kg/d C1): 71% | Plasma parameter Triglycerides % ([4]; group 8, 30 mg/kg/d C1): 99% | Liver Cholesterol ([5]; group 6, 3 mg/kg/d C1): 10.99 mg/g | Liver Cholesterol % ([5]; group 6, 3 mg/kg/d C1): 100% | Liver Cholesterol ([5]; group 7, 10 mg/kg/d C1): 9.50 mg/g | Liver Cholesterol % ([5]; group 7, 10 mg/kg/d C1): 86% | Liver Cholesterol ([5]; group 8, 30 mg/kg/d C1): 7.18 mg/g | Liver Cholesterol % ([5]; group 8, 30 mg/kg/d C1): 65% | CH absorption % absorption ([6]; group 6, 3 mg/kg/d C1): 39.6% | CH absorption % of ctr. ([6]; group 6, 3 mg/kg/d C1): ±80.9% | CH absorption % absorption ([6]; group 7, 10 mg/kg/d C1): 49.1% | CH absorption % of ctr. ([6]; group 7, 10 mg/kg/d C1): ±100.1% | CH absorption % absorption ([6]; group 8, 30 mg/kg/d C1): 38.3% | CH absorption % of ctr. ([6]; group 8, 30 mg/kg/d C1): ±78.2%

O=C1[C@H](CC[C@H](O)c2ccc(F)cc2)[C@@H](c2ccc(O)cc2)N1c1ccc(F)cc1 [K 00 04513, ezetimibe, reference compound]
HDL [4, 7]: 1.98 mmol/L | Plasma parameter Cholesterol [4, 7]: 3.73 mmol/L | Plasma parameter LDL [4, 7]: 1.06 mmol/L | Plasma parameter Triglycerides [4, 7]: 1.99 mmol/L | HDL % [4, 7]: 92% | Plasma parameter Cholesterol % [4, 7]: 91% | Plasma parameter LDL % [4, 7]: 94% | Plasma parameter Triglycerides % [4, 7]: 98% | HDL [4, 8]: 1.92 mmol/L | Plasma parameter Cholesterol [4, 8]: 2.99 mmol/L | Plasma parameter LDL [4, 8]: 0.40 mmol/L | Plasma parameter Triglycerides [4, 8]: 1.87 mmol/L | HDL % [4, 8]: 89% | Plasma parameter Cholesterol % [4, 8]: 73% | Plasma parameter LDL % [4, 8]: 35% | Plasma parameter Triglycerides % [4, 8]: 92% | HDL ([4]; group 5, 1 mg/kg/d K 00 04513): 1.71 mmol/L | Plasma parameter Cholesterol ([4]; group 5, 1 mg/kg/d K 00 04513): 2.53 mmol/L | Plasma parameter LDL ([4]; group 5, 1 mg/kg/d K 00 04513): 0.23 mmol/L | Plasma parameter Triglycerides ([4]; group 5, 1 mg/kg/d K 00 04513): 1.79 mmol/L | HDL % ([4]; group 5, 1 mg/kg/d K 00 04513): 80% | Plasma parameter Cholesterol % ([4]; group 5, 1 mg/kg/d K 00 04513): 62% | Plasma parameter LDL % ([4]; group 5, 1 mg/kg/d K 00 04513): 20% | Plasma parameter Triglycerides % ([4]; group 5, 1 mg/kg/d K 00 04513): 88% | Liver Cholesterol [5, 7]: 11.52 mg/g | Liver Cholesterol % [5, 7]: 105% | Liver Cholesterol [5, 8]: 2.00 mg/g | Liver Cholesterol % [5, 8]: 18% | Liver Cholesterol ([5]; group 5, 1 mg/kg/d K 00 04513): 1.78 mg/g | Liver Cholesterol % ([5]; group 5, 1 mg/kg/d K 00 04513): 16% | CH absorption % absorption [6, 7]: 47.4% | CH absorption % of ctr. [6, 7]: ±96.8% | CH absorption % absorption [6, 8]: 15.6% | CH absorption % of ctr. [6, 8]: ±31.8% | CH absorption % absorption ([6]; group 5, 1 mg/kg/d K 00 04513): 5.8% | CH absorption % of ctr. ([6]; group 5, 1 mg/kg/d K 00 04513): ±11.9%
